Consider 32 molecules from the SangsterLogP compilation.

In general, logP refers to a log measure of how a compound divides between an organic and an aqueous phase. A high value points to higher lipophilicity. For the molecule `Cc1sc(S(C)=O)c([N+](=O)[O-])c1C` (configuration not stated), the logP was determined as 2.65.
In turn, `CS(=O)c1sc(C#N)c(Cl)c1C#N` (configuration not stated) came in with a lipophilicity (logP) of 2.15.
The molecule `CCS(=O)c1sc(C#N)cc1C#N` (configuration not stated) showed a logP of 1.78.
With `CCOC(=O)c1cc(C#N)c(S(C)=O)s1` (configuration not stated) the figure was 2.27.
The molecule `CCS(=O)c1sc(C(C)=O)c(C)c1[N+](=O)[O-]` (configuration not stated) showed a log partition coefficient (logP) of 2.81.
On to `CCS(=O)c1sc(Cl)cc1C#N` (configuration not stated), for which the logP is 2.31.
Molecule `CCS(=O)c1sc(C(C)=O)c(C)c1C#N` (configuration not stated) registered a logP of 2.22.
As to `CC(=O)c1sc(S(C)=O)c(-c2ccc(Cl)cc2)c1C` (configuration not stated), the logP came out at 3.82.
For `CS(=O)c1cccs1` (configuration not stated), the logP was 0.91.
Take `COc1c(C#N)sc(S(C)=O)c1C#N` (configuration not stated): the logP turned out to be 2.02.
Consider `Cc1c(C#N)sc(S(C)(=O)=O)c1-c1ccc(Cl)cc1`, for which the logP is 3.8.
Next, `CS(=O)c1sccc1C#N` (configuration not stated): 0.96; `CCS(=O)c1ccc(C(C)=O)s1` (configuration not stated): 1.31; `CS(=O)c1sccc1[N+](=O)[O-]` (configuration not stated): 1.69.
As for `CCS(=O)c1sccc1[N+](=O)[O-]` (configuration not stated), the lipophilicity (logP) stood at 2.06.
Next, `CC(=O)c1sc(S(C)=O)c(-c2ccc(Cl)cc2)c1N` (configuration not stated): 3.18.
With `CCS(=O)c1sc(C#N)c(OC)c1C#N` (configuration not stated), the logP was 2.35.
`CCCCS(=O)c1sc(C#N)c(Cl)c1C#N` (configuration not stated) showed a logP of 3.44.
With `Cc1csc(S(C)=O)c1[N+](=O)[O-]` (configuration not stated) the figure was 2.19.
Next, `CCS(=O)c1sc(C(C)=O)c(N)c1C#N` (configuration not stated): 1.82; `CS(=O)c1sccc1Br` (configuration not stated): 1.71.
`CS(=O)c1ccsc1` (configuration not stated) registered a logP of 0.91.
Next, `CCCCS(=O)c1sc(C#N)cc1C#N` (configuration not stated): 2.64.
For `CCCS(=O)c1sccc1[N+](=O)[O-]` (configuration not stated), the logP is 2.52.
`CS(=O)c1scc(-c2ccccc2)c1[N+](=O)[O-]` (configuration not stated) showed a logP of 3.2.
`CCS(=O)c1sc(C#N)c(C)c1C(C)=O` (configuration not stated) showed a logP of 2.22.
The molecule `CC(=O)c1sc(S(C)=O)c(C#N)c1-c1ccc(Cl)cc1` (configuration not stated) showed a logP of 3.31.
With `CS(=O)c1sc(C#N)cc1C#N` (configuration not stated) the figure was 1.31.
Take `CCCS(=O)c1sc(C#N)c(Cl)c1C#N` (configuration not stated): the logP was 2.95.
In the case of `CS(=O)c1ccc([N+](=O)[O-])s1` (configuration not stated), the logP is 1.4.
In the case of `CCS(=O)c1sc(C(C)=O)c(Cl)c1C#N` (configuration not stated), the logP worked out at 2.64.
Next, `CCCS(=O)c1sc(C#N)cc1C#N` (configuration not stated): 2.18.
